Measurements as given in patent US20150072969A1, “PHENYL ALKANOIC ACID DERIVATIVES AS GPR AGONISTS” (PIRAMAL ENTERPRISES LIMITED, priority 2012, published 2015).

Molecular target: T1, human GPR40 (Homo sapiens, UniProt O14842)
T1 construct: expressed in transfected cells
Experiment: Inositol phosphate accumulation assay in FFAR1 (GPR40) CHOK1 clone
Format: cell-based
Details: GPR40 agonist activity; intracellular inositol phosphate release in CHOK1 cells stably expressing recombinant human GPR40; 1 h incubation at 37° C.
Method: The inositol phosphate accumulation assay was performed to characterise the GPR40 agonist activity of the compounds of the present invention.
The assay was carried out in accordance with the method substantially as described in Diabetes, 2008, 57(8):2211-2219 and PLoS One, 2011, 6(11):e27270.
A stable FFAR1 (GPR40) CHOK1 clone was used to determine the GPR40 agonist activity of the test compounds (compounds of the present invention synthesized in the above Examples). The stable FFAR1 (GPR40) CHOK1 clone expressing recombinant human GPR40 was generated according to the procedure described herein below.
Full-length human GPR40 cDNA (Accession Number: NM_005303) was cloned into mammalian expression vector (pReceiver) and was stably transfected into (Chinese Hamster Ovary) CHOK1 cells using Amaxa technology. 2 μg of pReceiver hGPR40 were transfected into 1×10^6 CHOK1 cells in 6 well plates. The cells were split into three 100 mm cell culture plates on the second day and geneticin (800 μg/ml) was added to the cell culture on the third day. The selection medium comprising Ham's F-12 K supplemented with FBS (10%) and geneticin (800 μg/ml) was changed every three days until colonies were formed. The colonies isolated were further purified (single cell cloning) after 14 days to obtain pure isogenic single cell homogenous population of cells expressing the GPR40 receptor protein on the cell surface. GPR40 receptor expression on cell surface was measured by flow cytometry. The in-house transgenic cell line (clone) created was labeled as FFAR1 (GPR40) CHOK1 clone.
FFAR1 (GPR40) CHOK1 cells were suspended in culture medium comprising Ham's F-12 K supplemented with FBS (10%) and geneticin (800 μg/ml). Cells were seeded at a density of 2×10^4 cells per well in a 384 well tissue culture plate and cultured overnight. The medium was discarded and the cells were further resuspended in a stimulation buffer comprising HEPES (10 mM), glucose (5.5 mM), CaCl2 (1 mM), NaCl (150 mM), KCl (4.2 mM), MgCl2 (0.5 mM) and LiCl (50 mM) having a pH of 7.6. The test compounds (representative compounds of Formula (I)) 10 mM stock were prepared in DMSO and subsequently log fold dilution of the test compounds were carried out in the stimulation buffer. Various concentrations of the test compounds and the standard DMSO solution were added to each well. The plates were further incubated at 37° C., 5% CO2 incubator for 1 h. The final concentration of the test compounds in the each well varied from 1 μM to 10 μM. The DMSO concentration in the assay was 0.1% or less. After incubation, lysis reagent and anti-Tb conjugate were added to each well. The intracellular Inositol Phosphate release and accumulation in the test compounds were measured by the binding ability of the anti-Tb conjugate with the inositol phosphate inherently produced in each well as compared with the inositol phosphate coupled to dye d2 added externally to each well. The plates were then read using Perkin Elmer (Envision) plate reader and the fluorescence signal was captured. The EC50 values for the test compounds were calculated from the non linear regression sigmoidal curve graphs plotted between the concentrations of the test compounds and the fluorescence intensity.

T1 sequence (O14842 whole entry): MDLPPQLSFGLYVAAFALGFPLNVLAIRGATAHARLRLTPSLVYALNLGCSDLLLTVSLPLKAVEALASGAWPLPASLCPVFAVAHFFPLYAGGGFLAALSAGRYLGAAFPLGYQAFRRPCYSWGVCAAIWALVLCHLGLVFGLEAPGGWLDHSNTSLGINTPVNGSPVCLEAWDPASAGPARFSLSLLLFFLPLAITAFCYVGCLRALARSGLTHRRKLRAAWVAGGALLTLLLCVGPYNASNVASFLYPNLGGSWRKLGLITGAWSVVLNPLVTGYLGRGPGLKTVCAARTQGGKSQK

Row | Structure (SMILES) | EC50 [nM]
1 | Cc1cc(OC2CCS(=O)(=O)CC2)cc(C)c1-c1cccc(COc2ccc(C3(CC(=O)O)COC3)cc2)c1 [Example 57, 2-(3-(4-((4′-((1,1-Dioxidotetrahydro-2H-thiopyran-4-yl)oxy)-2′,6′-dimethyl-[1,1′-biphenyl]-3-yl)methoxy)phenyl)oxetan-3-yl)acetic acid] | 100 to 500
2 | COc1cc(-c2cccc(COc3ccc(C4(CC(=O)O)COC4)cc3)c2)ccc1OCCCS(C)(=O)=O [Example 81, 2-(3-(4-((3′-Methoxy-4′-(3-(methylsulfonyl)propoxy)-[1,1′-biphenyl]-3-yl)methoxy)phenyl)oxetan-3-yl)acetic acid] | > 500
3 | Cc1cc(OCC2CCS(=O)(=O)CC2)cc(C)c1-c1cccc(COc2ccc(C3(CC(=O)O)COC3)cc2)c1 [Example 45, 2-(3-(4-((4′-((1,1-Dioxidotetrahydro-2H-thiopyran-4-yl)methoxy)-2′,6′-dimethyl-[1,1′-biphenyl]-3-yl)methoxy)phenyl)oxetan-3-yl)acetic acid] | < 100
4 | Cc1cc(OCC2CCOCC2)cc(C)c1-c1cccc(COc2ccc(C3(CC(=O)O)COC3)cc2)c1 [Example 43, 2-(3-(4-((2′,6′-Dimethyl-4′-((tetrahydro-2H-pyran-4-yl)methoxy)-[1,1′-biphenyl]-3-yl)methoxy)phenyl)oxetan-3-yl)acetic acid] | < 100
5 | Cc1cc(OCC2CCOC2)cc(C)c1-c1cccc(COc2ccc(C3(CC(=O)O)COC3)cc2)c1 (stereo not shown) [Example 41, 2-(3-(4-((2′,6′-Dimethyl-4′-((tetrahydrofuran-3-yl)methoxy)-[1,1′-biphenyl]-3-yl)methoxy)phenyl)oxetan-3-yl)acetic acid] | < 100
6 | Cc1cc(-c2cccc(COc3ccc(C4(CC(=O)O)COC4)cc3)c2)cc(C)c1OCCCS(C)(=O)=O [Example 79, 2-(3-(4-((3′,5′-Dimethyl-4′-(3-(methylsulfonyl)propoxy)-[1,1′-biphenyl]-3-yl)methoxy)phenyl)oxetan-3-yl)acetic acid] | 100 to 500
7 | O=C(O)CC1(c2ccc(OCc3cccc(-c4ccccc4)c3)cc2)COC1 [Example 4, 2-(3-(4-([1,1′-Biphenyl]-3-ylmethoxy)phenyl)oxetan-3-yl)acetic acid] | 100 to 500
8 | CC(C)Sc1ccc(-c2cccc(COc3ccc(C4(CC(=O)O)COC4)cc3)c2)cc1 [Example 89, 2-(3-(4-((4′-(Isopropylthio)-[1,1′-biphenyl]-3-yl)methoxy)phenyl)oxetan-3-yl)acetic acid] | 100 to 500
9 | Cc1cc(OCCCS(C)(=O)=O)ccc1-c1cccc(COc2ccc(C3(CC(=O)O)COC3)cc2)c1 [Example 77, 2-(3-(4-((2′-Methyl-4′-(3-(methylsulfonyl)propoxy)-[1,1′-biphenyl]-3-yl)methoxy)phenyl)oxetan-3-yl)acetic acid] | < 100
10 | Cc1cc(OCC2(C)COC2)cc(C)c1-c1cccc(COc2ccc(C3(CC(=O)O)COC3)cc2)c1 [Example 51, 2-(3-(4-((2′,6′-Dimethyl-4′-((3-methyloxetan-3-yl)methoxy)-[1,1′-biphenyl]-3-yl)methoxy)phenyl)oxetan-3-yl)acetic acid] | > 500
11 | Cc1cc(OCCCS(C)(=O)=O)cc(C)c1-c1cccc(COc2ccc(C3(CC(=O)O)COC3)cc2F)c1 [Example 16, 2-(3-(4-((2′,6′-Dimethyl-4′-(3-(methylsulfonyl)propoxy)-[1,1′-biphenyl]-3-yl)methoxy)-3-fluorophenyl)oxetan-3-yl)acetic acid] | > 500
12 | O=C(O)CC1(c2ccc(OCc3cccc(-c4cnc(N5CCOCC5)nc4)c3)cc2)COC1 [Example 108, 2-(3-(4-((3-(2-Morpholinopyrimidin-5-yl)benzyl)oxy)phenyl)oxetan-3-yl)acetic acid] | < 100
13 | CCCCSc1ccc(-c2cccc(COc3ccc(C4(CC(=O)O)COC4)cc3)c2)cc1 [Example 85, 2-(3-(4-((4′-(Butylthio)-[1,1′-biphenyl]-3-yl)methoxy)phenyl)oxetan-3-yl)acetic acid] | > 500
